Laboratory results published in patent US20250163047A1, “HETEROCYCLIC COMPOUNDS, COMPOSITIONS THEREOF, AND METHODS OF TREATMENT THEREWITH” (BeiGene, Ltd., priority 2022, published 2025).

Tests used:
Cbl-b (aa36-427) [1] = target: T1, Cbl-b (aa36-427) (Homo sapiens, UniProt Q13191); test: Biotin-labelled Cbl-b biochemical assay (CBLB/E2-Ub binding, HTRF); settings: 5.0 nM biotin labelled Cbl-b
T1 construct: Cbl-b (aa36-427, in-house); made in house
Method: (§1) The assay in the absence of a Cbl-b/Cbl inhibitor, where phosphorylation of Cbl-b/Cbl by the Src kinase allows UbcH5B-Ub to bind to Cbl-b/Cbl and brings the Bodipy-Fluorescein tagged ubiquitin in proximity to the streptavidin-terbium bound to the N-terminal biotinylated Avi-tagged Cbl-b/Cbl. […] The lack of a FRET signal indicates Cbl-b/Cbl is inhibited by the Cbl-b/Cbl inhibitor.
(§2) 5.0 nM recombinant biotin labelled Cbl-b was pre-incubated with a serial dilution of compounds (maximum concentration is 100 μM, 3-fold serially diluted, 16 points) at room temperature for 1.5 hour in an assay buffer containing 50 mM HEPES, pH 7.0, 100 mM NaCl, 0.01% BSA, 1 mM DTT, 0.01% Triton X-100. Then 25 nM in-house UbcH5B-Ub conjugate protein, 60 nM SRC (aa251-536, in-house), 0.5 mM ATP, 5 mM MgCl2 and Streptavidin-Tb cryptate (Cat: 610SATLB, Cisbio Bioassays) were added to plate and further incubated at room temperature for 2 hours.

Cbl (aa49-434) [2] = target: T2, Cbl (aa49-434) (Homo sapiens, UniProt P22681); test: Biotin-labelled Cbl biochemical assay (CBL/E2-Ub binding, HTRF); settings: 5.0 nM biotin labelled Cbl
T2 construct: Cbl (aa49-434, in-house); made in house
T2 sequence (P22681 49-434): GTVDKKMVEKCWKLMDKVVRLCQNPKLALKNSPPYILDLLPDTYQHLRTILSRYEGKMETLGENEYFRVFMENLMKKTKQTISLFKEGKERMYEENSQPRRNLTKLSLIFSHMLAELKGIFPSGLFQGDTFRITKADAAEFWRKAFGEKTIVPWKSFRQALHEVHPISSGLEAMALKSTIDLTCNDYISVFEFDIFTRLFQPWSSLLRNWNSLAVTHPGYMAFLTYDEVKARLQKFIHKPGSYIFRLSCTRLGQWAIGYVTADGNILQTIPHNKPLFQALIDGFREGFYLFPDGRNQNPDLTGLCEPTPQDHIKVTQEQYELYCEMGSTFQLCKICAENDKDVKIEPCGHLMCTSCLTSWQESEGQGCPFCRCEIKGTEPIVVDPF
Method: as §1
as §2, with “labelled Cbl” for “labelled Cbl-b”, “100 µM,” for “100 μM,”, “Then 10” for “Then 25”

Cbl (aa49-434) [3] = target: T2, Cbl (aa49-434); test: Co-expressed Cbl with BirA biochemical assay (CBL/E2-Ub binding, HTRF); settings: 0.6 nM Cbl co-expressed with BirA, read-out: co-express CBL/E2-Ub-binding assay IC50
Text: as §1

Cbl-b (aa36-427) [4] = target: T1, Cbl-b (aa36-427); test: Co-expressed Cbl-b with BirA biochemical assay (CBLB/E2-Ub binding, HTRF); settings: 0.6 nM Cbl-b co-expressed with BirA, HTRF; read-out: co-express CBLB/E2-Ub-binding assay IC50
Text: as §1

T1 sequence (Q13191 36-427): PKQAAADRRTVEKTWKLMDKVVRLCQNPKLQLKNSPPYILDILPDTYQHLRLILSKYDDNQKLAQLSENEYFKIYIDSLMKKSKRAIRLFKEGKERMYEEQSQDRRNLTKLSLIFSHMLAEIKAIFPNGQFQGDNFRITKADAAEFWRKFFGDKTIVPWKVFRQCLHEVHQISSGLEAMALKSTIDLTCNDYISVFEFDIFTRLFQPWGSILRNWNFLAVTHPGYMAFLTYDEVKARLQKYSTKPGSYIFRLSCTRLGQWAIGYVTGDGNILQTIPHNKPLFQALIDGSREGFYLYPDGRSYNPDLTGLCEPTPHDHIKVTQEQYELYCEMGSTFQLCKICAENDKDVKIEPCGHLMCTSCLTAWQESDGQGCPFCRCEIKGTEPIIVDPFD

SMILES: C[C@H]1CCCN(Cc2cc(C(=O)Nc3cccc([C@]4(c5nncn5C)C[C@@H](C)C4)c3)c3nccn3c2)C1 [Compound A1, N-(3-((1s,3R)-3-methyl-1-(4-methyl-4H-1,2,4-triazol-3-yl)cyclobutyl)phenyl)-6-(((S)-3-methylpiperidin-1-yl)methyl)imidazo[1,2-a]pyridine-8-carboxamide]
- IC50 (Cbl-b (aa36-427) [1]): 5.36 nM
- IC50 (Cbl (aa49-434) [2]): 31.8 nM

SMILES: C[C@H]1CCCN(Cc2cc(C(=O)Nc3cccc([C@]4(c5nncn5C)C[C@@H](C)C4)c3)nc3c2CC[C@@H]3C)C1 (single isomer, unassigned) [Compound C3, (S)-7-methyl-N-(3-((1s,3R)-3-methyl-1-(4-methyl-4H-1,2,4-triazol-3-yl)cyclobutyl)phenyl)-4-(((S)-3-methylpiperidin-1-yl)methyl)-6,7-dihydro-5H-cyclopenta[b]pyridine-2-carboxamide or (R)-7-methyl-N-(3-((1s,3S)-3-methyl-1-(4-methyl-4H-1,2,4-triazol-3-yl)cyclobutyl)phenyl)-4-(((S)-3-methylpiperidin-1-yl)methyl)-6,7-dihydro-5H-cyclopenta[b]pyridine-2-carboxamide]
- IC50 (Cbl-b (aa36-427) [1]): 4.8 nM
- IC50 (Cbl (aa49-434) [2]): 21.7 nM

SMILES: CC1CC(c2cccc(NC(=O)c3cc(CN4CCC[C@H](C)C4)c4c(n3)CCC4)c2)(c2nncn2C)C1 (stereo partly drawn) [Compound C1, (S)—N-(3-(3-methyl-1-(4-methyl-4H-1,2,4-triazol-3-yl)cyclobutyl)phenyl)-4-((3-methylpiperidin-1-yl)methyl)-6,7-dihydro-5H-cyclopenta[b]pyridine-2-carboxamide]
- IC50 (Cbl-b (aa36-427) [1]): 11 nM
- IC50 (Cbl (aa49-434) [2]): 60 nM

SMILES: CC1CCc2c(CN3CCC[C@H](C)C3)cc(C(=O)Nc3cccc([C@]4(c5nncn5C)C[C@@H](C)C4)c3)nc21 (stereo partly drawn) [Compound C2, 7-methyl-N-(3-((1s,3R)-3-methyl-1-(4-methyl-4H-1,2,4-triazol-3-yl)cyclobutyl)phenyl)-4-(((S)-3-methylpiperidin-1-yl)methyl)-6,7-dihydro-5H-cyclopenta[b]pyridine-2-carboxamide]
- IC50 (Cbl-b (aa36-427) [1]): 11.9 nM
- IC50 (Cbl (aa49-434) [2]): 28.8 nM

SMILES: C[C@H]1CCCN(Cc2cc(C(=O)Nc3cccc([C@]4(Cc5nncn5C)C[C@@H](C#N)C4)c3)c3nccn3c2)C1 [Compound A4, N-(3-((1r,3S)-3-cyano-1-((4-methyl-4H-1,2,4-triazol-3-yl)methyl)cyclobutyl)phenyl)-6-(((S)-3-methylpiperidin-1-yl)methyl)imidazo[1,2-a]pyridine-8-carboxamide]
- IC50 (Cbl-b (aa36-427) [1]): 3.3 nM
- IC50 (Cbl (aa49-434) [2]): 28.7 nM

SMILES: C[C@H]1CCCN(Cc2cc(C(=O)Nc3cccc([C@]4(c5nncn5C)C[C@H](C)C4)c3)c3nccn3c2)C1 [Compound A2, N-(3-((1r,3S)-3-methyl-1-(4-methyl-4H-1,2,4-triazol-3-yl)cyclobutyl)phenyl)-6-(((S)-3-methylpiperidin-1-yl)methyl)imidazo[1,2-a]pyridine-8-carboxamide]
- IC50 (Cbl-b (aa36-427) [1]): 3.26 nM
- IC50 (Cbl (aa49-434) [2]): 23 nM

SMILES: C[C@H]1CCCN(Cc2cc(C(=O)Nc3cccc([C@]4(c5nncn5C)C[C@@H](C)C4)c3)nc3c2CCC3(F)F)C1 [Compound C5, 7,7-difluoro-N-(3-((1s,3R)-3-methyl-1-(4-methyl-4H-1,2,4-triazol-3-yl)cyclobutyl)phenyl)-4-(((S)-3-methylpiperidin-1-yl)methyl)-6,7-dihydro-5H-cyclopenta[b]pyridine-2-carboxamide]
- IC50 (Cbl-b (aa36-427) [1]): 8.3 nM
- IC50 (Cbl (aa49-434) [2]): 29.1 nM

SMILES: C[C@H]1CCCN(Cc2cc(C(=O)Nc3cccc([C@]4(c5nncn5C)C[C@@H](CC#N)C4)c3)c3nccn3c2)C1 [Compound A3, N-(3-((1s,3R)-3-(cyanomethyl)-1-(4-methyl-4H-1,2,4-triazol-3-yl)cyclobutyl)phenyl)-6-(((S)-3-methylpiperidin-1-yl)methyl)imidazo[1,2-a]pyridine-8-carboxamide]
- IC50 (Cbl-b (aa36-427) [1]): 5.8 nM
- IC50 (Cbl (aa49-434) [2]): 60.1 nM
- IC50 (Cbl (aa49-434) [3]): 47 nM
- IC50 (Cbl-b (aa36-427) [4]): 7.1 nM

SMILES: C[C@@H]1CN(Cc2cc(C(=O)Nc3cccc([C@]4(c5nncn5C)C[C@@H](CC#N)C4)c3)c3nccn3c2)CCO1 [Compound A5, N-(3-((1s,3S)-3-(cyanomethyl)-1-(4-methyl-4H-1,2,4-triazol-3-yl)cyclobutyl)phenyl)-6-(((R)-2-methylmorpholino)methyl)imidazo[1,2-a]pyridine-8-carboxamide]
- IC50 (Cbl-b (aa36-427) [1]): 138 nM
- IC50 (Cbl (aa49-434) [2]): 914 nM

SMILES: C[C@H]1CCCN(Cc2cc(C(=O)Nc3cccc([C@]4(c5nncn5C)C[C@@H](C)C4)c3)nc3c2CC[C@@H]3C)C1 (single isomer, unassigned) [Compound C4, (S)-7-methyl-N-(3-((1s,3R)-3-methyl-1-(4-methyl-4H-1,2,4-triazol-3-yl)cyclobutyl)phenyl)-4-(((S)-3-methylpiperidin-1-yl)methyl)-6,7-dihydro-5H-cyclopenta[b]pyridine-2-carboxamide or (R)-7-methyl-N-(3-((1s,3S)-3-methyl-1-(4-methyl-4H-1,2,4-triazol-3-yl)cyclobutyl)phenyl)-4-(((S)-3-methylpiperidin-1-yl)methyl)-6,7-dihydro-5H-cyclopenta[b]pyridine-2-carboxamide]
- IC50 (Cbl-b (aa36-427) [1]): 16.2 nM
- IC50 (Cbl (aa49-434) [2]): 76 nM

SMILES: Cn1cnnc1[C@]1(c2cncc(NC(=O)c3cc(CNC4(C)CC4)cn4c(F)cnc34)c2)C[C@H](C)C1 [Compound A74, 3-fluoro-N-(5-((1s, 3s)-3-methyl-1-(4-methyl-4H-1,2,4-triazol-3-yl)cyclobutyl)pyridin-3-yl)-6-(((1-methylcyclopropyl)amino)methyl)imidazo[1,2-a]pyridine-8-carboxamide]
- IC50 (Cbl (aa49-434) [3]): 4.2 nM
- IC50 (Cbl-b (aa36-427) [4]): 1.2 nM

SMILES: C[C@H](NCc1cc(C(=O)Nc2cccc([C@]3(c4nncn4C)C[C@@H](C)C3)c2)nc2cc[nH]c12)C1CC1 [Compound B3, 7-((((S)-1-cyclopropylethyl)amino)methyl)-N-(3-((1s,3R)-3-methyl-1-(4-methyl-4H-1,2,4-triazol-3-yl)cyclobutyl)phenyl)-1H-pyrrolo[3,2-b]pyridine-5-carboxamide]
- IC50 (Cbl (aa49-434) [3]): 1.8 nM
- IC50 (Cbl-b (aa36-427) [4]): 0.7 nM

SMILES: Cn1cnnc1[C@]1(c2cccc(NC(=O)c3cc(CNC4(C)CC4)cc4c(F)cnn34)c2)C[C@H](CC#N)C1 [Compound A94, N-(3-((1s, 3s)-3-(cyanomethyl)-1-(4-methyl-4H-1,2,4-triazol-3-yl)cyclobutyl)phenyl)-3-fluoro-5-(((1-methylcyclopropyl)amino)methyl)pyrazolo[1,5-a]pyridine-7-carboxamide]
- IC50 (Cbl (aa49-434) [3]): 5.9 nM
- IC50 (Cbl-b (aa36-427) [4]): 0.5 nM

SMILES: C[C@H](NCc1cc(C(=O)Nc2cccc([C@]3(c4nncn4C)C[C@@H](CC#N)C3)c2)nc2c1CCC2(C)C)C1CCC1 [Compound C38, N-(3-((1s,3R)-3-(cyanomethyl)-1-(4-methyl-4H-1,2,4-triazol-3-yl)cyclobutyl)phenyl)-4-((((S)-1-cyclobutylethyl)amino)methyl)-7,7-dimethyl-6,7-dihydro-5H-cyclopenta[b]pyridine-2-carboxamide]
- IC50 (Cbl (aa49-434) [3]): 1.5 nM
- IC50 (Cbl-b (aa36-427) [4]): 1.1 nM

SMILES: C[C@H]1CCCN(Cc2cc(C(=O)Nc3cccc([C@]4(c5nncn5C)C[C@@H](CC#N)C4)c3)nc3c2CCC3(F)F)C1 [Compound C6, N-(3-((1s,3R)-3-(cyanomethyl)-1-(4-methyl-4H-1,2,4-triazol-3-yl)cyclobutyl)phenyl)-7,7-difluoro-4-(((S)-3-methylpiperidin-1-yl)methyl)-6,7-dihydro-5H-cyclopenta[b]pyridine-2-carboxamide]
- IC50 (Cbl-b (aa36-427) [1]): 3.4 nM
- IC50 (Cbl (aa49-434) [2]): 48 nM
